Results: PubChem BioAssay AID687027 (Broad Institute, 2013)

Test system: RMG-I TPO-Luc reporter, SteadyGlo luminescence, 24 h
Assay: inhibitors of PAX8-driven TPO luciferase reporter, dose response, RMG-I cells, cherry-pick (AID 687027);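 further: potency for lowering reporter light which is read as Pax8 inhibition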

COC(C(=O)C(O)C(C)O)C1Cc2cc3cc(OC4CC(OC5CC(O)C(O)C(C)O5)C(O)C(C)O4)c(C)c(O)c3c(O)c2C(=O)C1OC1CC(OC2CC(OC3CC(O)C(OC)C(C)O3)C(O)C(C)O2)C(O)C(C)O1 (stereo unspecified)
AC50: < 260 nM
